Results as given in ChEMBL document CHEMBL4033699, “Insights into the myosin II inhibitory potency of A-ring-modified (S)-blebbistatin analogs” (Bioorg Med Chem Lett, 2017).

Assays:
[1] = Inhibition of F-actin activated rabbit full length myosin 2 ATPase activity after 1 hr by CytoPhos reagent based assay; set-up: species or system Oryctolagus cuniculus
[2] = Solubility of the compound in Tris-HCl at pH 7.5; type: physicochemical; conditions: Tris-HCl buffer

Row | SMILES | IC50 [1] [µM] | solubility [2] [µM]
1 | O=C1c2cc3c(cc2N=C2N(c4ccccc4)CC[C@@]12O)NCC3 | 14.5 | < 50
2 | O=C1c2cc3cc[nH]c3cc2N=C2N(c3ccccc3)CC[C@@]12O | > 20 | < 40

Compounds with a lower IC50 [1], results first:

Row | IC50 [1] [µM] | solubility [2] [µM] | SMILES
3 | 8.46 | < 40 | C=CCN1CCc2cc3c(cc21)N=C1N(c2ccccc2)CC[C@@]1(O)C3=O
4 | 7.97 | < 15 | O=C1c2cc3ccccc3cc2N=C2N(c3ccccc3)CC[C@@]12O
5 | 1.02 | < 100 | Cc1ccc2c(c1)C(=O)[C@]1(O)CCN(c3ccccc3)C1=N2
